Experimental data reported in patent US20220370453A1 (Storm Therapeutics Ltd, priority 2019, published 2022).

What was measured:
BCDIN3D [1] = molecular target: T1, BCDIN3D (Homo sapiens, UniProt Q7Z5W3); assay: BCDIN3D InCellPulse thermal stability assay in transfected A549 cells; format: cell-based; conditions: transiently transfected A549 cells, heat shock 58° C. 15 min
T1 sequence (Q7Z5W3 1-292): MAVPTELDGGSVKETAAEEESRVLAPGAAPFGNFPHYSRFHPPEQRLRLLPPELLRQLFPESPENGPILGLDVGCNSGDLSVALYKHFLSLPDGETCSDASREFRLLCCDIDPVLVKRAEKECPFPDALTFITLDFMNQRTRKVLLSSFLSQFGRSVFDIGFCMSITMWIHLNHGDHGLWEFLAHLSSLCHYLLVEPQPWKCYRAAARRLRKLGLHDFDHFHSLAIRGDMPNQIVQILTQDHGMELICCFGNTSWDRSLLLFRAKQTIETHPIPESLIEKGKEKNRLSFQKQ
How it was run: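 Thermal stabilisation read-out: after a 15 min 58 °C heat shock, ePL-tagged BCDIN3D in transiently transfected A549 cells (1500/well) was quantified by enzyme-fragment complementation luminescence. Compounds were pre-incubated with cells 1 h at 37 °C, 0.6% DMSO final.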

BCDIN3D [2] = molecular target: T1, BCDIN3D; assay: BCDIN3D IC50 RFMS (RapidFire) assay with mini-helix; format: biochemical; conditions: mini-helix substrate 0.2 μM, SAM 6 μM, 25 nM enzyme
How it was run: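 SAH formation was measured by RapidFire mass spectrometry with D4- and 13C10-SAH internal standards after TCA quench. Substrates 6 μM SAM and 0.2 μM mini-helix reacted 1 h at 37 °C with 25 nM enzyme, which had been preincubated 10 min with compound (1% DMSO) in Tris pH 8.0 buffer with DTT, EDTA, BSA.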

| Structure (SMILES) | IC50 (BCDIN3D [1]) [nM] | IC50 (BCDIN3D [2]) [nM] |
| --- | --- | --- |
| Cn1ncc2c(NC(C)(C)C)nc(NCC(N)c3ccccc3)nc21 (stereo not drawn) [Compound 4.50, 6-N-(2-amino-2-phenylethyl)-4-N-tert-butyl-1-methylpyrazolo[3,4-d]pyrimidine-4,6-diamine] | 871 | 196 |
| Cn1ncc2c(NC(C)(C)C)nc(NCC(C)(N)c3ccccc3)nc21 (stereo not drawn) [Compound 4.51, N6-(2-amino-2-phenyl-propyl)-N4-tert-butyl-1-methyl-pyrazolo[3,4-d]pyrimidine-4,6-diamine] | 1810 | 581 |
| [2H]C([2H])([2H])n1ncc2c(NC(C)(C)C)nc(NCC(N)c3ccccc3)nc21 (stereo not drawn) [Compound 4.52, N6-(2-amino-2-phenyl-ethyl)-N4-tert-butyl-1-(trideuteriomethyl)pyrazolo[3,4-d]pyrimidine-4,6-diamine] | 536 | 169 |
| Cn1ncc2c(NC(C)(C)C)nc(NC[C@H](N)c3ccccc3)nc21 [Compound 4.53, 6-N-[(2R)-2-amino-2-phenylethyl]-4-N-tert-butyl-1-methylpyrazolo[3,4-d]pyrimidine-4,6-diamine] | 282 | 118 |
| Cn1ncc2c(NC(C)(C)C)nc(NC[C@@H](N)c3ccccc3)nc21 [Compound 4.54, 6-N-[(2S)-2-amino-2-phenylethyl]-4-N-tert-butyl-1-methylpyrazolo[3,4-d]pyrimidine-4,6-diamine] | 3110 | 1970 |
| [2H]C([2H])([2H])n1ncc2c(NC(C)(C)C)nc(NC[C@H](N)c3ccccc3)nc21 [Compound 4.55, N6-[(2R)-2-amino-2-phenyl-ethyl]-N4-tert-butyl-1-(trideuteriomethyl)pyrazolo[3,4-d]pyrimidine-4,6-diamine] | 152 | 133 |
| Cn1ncc2c(NCC3CC3)nc(NCC(N)c3ccccc3)nc21 (stereo not drawn) [Compound 4.56, 6-N-(2-amino-2-phenylethyl)-4-N-(cyclopropylmethyl)-1-methylpyrazolo[3,4-d]pyrimidine-4,6-diamine] | 7270 | 3470 |
| Cn1ncc2c(NC(C3CC3)C3CC3)nc(NCC(N)c3ccccc3)nc21 (stereo not drawn) [Compound 4.57, N6-(2-amino-2-phenyl-ethyl)-N4-(dicyclopropylmethyl)-1-methyl-pyrazolo[3,4-d]pyrimidine-4,6-diamine] | 2720 | 6450 |
| CC1CC1CNc1nc(NC[C@H](N)c2ccccc2)nc2c1cnn2C (stereo partly drawn) [Compound 4.58, N6-[(2R)-2-amino-2-phenyl-ethyl]-1-methyl-N4-[(2-methylcyclopropyl)methyl]pyrazolo[3,4-d]pyrimidine-4,6-diamine] | 184 | 70.4 |
| Cn1ncc2c(NC(C)(C)C3CC3)nc(NC[C@H](N)c3ccccc3)nc21 [Compound 4.59, N6-[(2R)-2-amino-2-phenyl-ethyl]-N4-(1-cyclopropyl-1-methyl-ethyl)-1-methyl-pyrazolo[3,4-d]pyrimidine-4,6-diamine] | 77.5 | 109 |
| Cn1ncc2c(NCC3CC34CC4)nc(NC[C@H](N)c3ccccc3)nc21 (stereo partly drawn) [Compound 4.60, N6-[(2R)-2-amino-2-phenyl-ethyl]-1-methyl-N4-(spiro[2.2]pentan-2-ylmethyl)pyrazolo[3,4-d]pyrimidine-4,6-diamine] | 44.4 | 6.1 |
| Cn1ncc2c(NCC3CC3(F)F)nc(NC[C@H](N)c3ccccc3)nc21 (stereo partly drawn) [Compound 4.61, N6-[(2R)-2-amino-2-phenyl-ethyl]-N4-[(2,2-difluorocyclopropyl)methyl]-1-methyl-pyrazolo[3,4-d]pyrimidine-4,6-diamine] | 378 | 266 |
| Cn1ncc2c(NCC3CC3(C)C)nc(NC[C@H](N)c3ccccc3)nc21 (stereo partly drawn) [Compound 4.62, N6-[(2R)-2-amino-2-phenyl-ethyl]-N4-[(2,2-dimethylcyclopropyl)methyl]-1-methyl-pyrazolo[3,4-d]pyrimidine-4,6-diamine] | 112 | 6.1 |
| Cn1ncc2c(NC34CC(C#N)(C3)C4)nc(NCC(N)c3ccccc3)nc21 (stereo not drawn) [Compound 4.64, 3-[[6-[(2-amino-2-phenylethyl)amino]-1-methylpyrazolo[3,4-d]pyrimidin-4-yl]amino]bicyclo[1.1.1]pentane-1-carbonitrile] | 949 | 202 |
| Cn1ncc2c(NC34CC(F)(C3)C4)nc(NCC(N)c3ccccc3)nc21 (stereo not drawn) [Compound 4.65, N6-(2-amino-2-phenylethyl)-N4-{3-fluorobicyclo[1.1.1]pentan-1-yl}-1-methyl-1H-pyrazolo[3,4-d]pyrimidine-4,6-diamine] | 616 | 230 |
| Cn1ncc2c(NC34CC(C3)C4)nc(NC[C@H](N)c3ccccc3)nc21 [Compound 4.66, N6-[(2R)-2-amino-2-phenyl-ethyl]-N4-(3-bicyclo[1.1.1]pentanyl)-1-methyl-pyrazolo[3,4-d]pyrimidine-4,6-diamine] | 137 | 128 |
| Cn1ncc2c(NC34CC(F)(C3)C4)nc(NC[C@H](N)c3ccccc3)nc21 [Compound 4.67, N6-[(2R)-2-amino-2-phenyl-ethyl]-N4-(3-fluoro-1-bicyclo[1.1.1]pentanyl)-1-methyl-pyrazolo[3,4-d]pyrimidine-4,6-diamine] | 168 | 179 |
| Cn1ncc2c(NC3CCC(F)(F)CC3)nc(NCC(N)c3ccccc3)nc21 (stereo not drawn) [Compound 4.68, 6-N-(2-amino-2-phenylethyl)-4-N-(4,4-difluorocyclohexyl)-1-methylpyrazolo[3,4-d]pyrimidine-4,6-diamine] | 3240 | 1140 |
| Cn1ncc2c(NC3CCOCC3)nc(NC[C@H](N)c3ccccc3)nc21 [Compound 4.69, N6-[(2R)-2-amino-2-phenyl-ethyl]-1-methyl-N4-tetrahydropyran-4-yl-pyrazolo[3,4-d]pyrimidine-4,6-diamine] | 3140 | 851 |
| Cn1ncc2c(NC(C)(C)CO)nc(NC[C@H](N)c3ccccc3)nc21 [Compound 4.71, 2-[[6-[[(2R)-2-amino-2-phenyl-ethyl]amino]-1-methyl-pyrazolo[3,4-d]pyrimidin-4-yl]amino]-2-methyl-propan-1-ol] | 1200 | 1400 |
| Cn1ncc2c(NCC(C)(C)C)nc(NC[C@H](N)c3ccccc3)nc21 [Compound 4.72, N6-[(2R)-2-amino-2-phenyl-ethyl]-N4-(2,2-dimethylpropyl)-1-methyl-pyrazolo[3,4-d]pyrimidine-4,6-diamine] | 318 | 154 |
| Cn1ncc2c(NCC(F)F)nc(NC[C@H](N)c3ccccc3)nc21 [Compound 4.73, N6-[(2R)-2-amino-2-phenyl-ethyl]-N4-(2,2-difluoroethyl)-1-methyl-pyrazolo[3,4-d]pyrimidine-4,6-diamine] | 412 | 528 |
| Cn1ncc2c(NCC(C)(F)F)nc(NC[C@H](N)c3ccccc3)nc21 [Compound 4.74, N6-[(2R)-2-amino-2-phenyl-ethyl]-N4-(2,2-difluoropropyl)-1-methyl-pyrazolo[3,4-d]pyrimidine-4,6-diamine] | 341 | 252 |
| Cn1ncc2c(NC(C)(C)C(F)(F)F)nc(NC[C@H](N)c3ccccc3)nc21 [Compound 4.75, N6-[(2R)-2-amino-2-phenyl-ethyl]-1-methyl-N4-(2,2,2-trifluoro-1,1-dimethyl-ethyl)pyrazolo[3,4-d]pyrimidine-4,6-diamine] | 711 | 240 |
| C[C@H](Nc1nc(NC[C@H](N)c2ccccc2)nc2c1cnn2C)C(F)(F)F [Compound 4.76, N6-[(2R)-2-amino-2-phenyl-ethyl]-1-methyl-N4-[(1S)-2,2,2-trifluoro-1-methyl-ethyl]pyrazolo[3,4-d]pyrimidine-4,6-diamine] | 232 | 136 |
| Cn1ncc2c(NC3(C)CC3)nc(NC[C@H](N)c3ccccc3)nc21 [Compound 4.77, N6-[(2R)-2-amino-2-phenyl-ethyl]-1-methyl-N4-(1-methylcyclopropyl)pyrazolo[3,4-d]pyrimidine-4,6-diamine] | 1970 | 2770 |
| Cn1ncc2c(NC3(C(F)(F)F)CC3)nc(NC[C@H](N)c3ccccc3)nc21 [Compound 4.78, N6-[(2R)-2-amino-2-phenyl-ethyl]-1-methyl-N4-[1-(trifluoromethyl)cyclopropyl]pyrazolo[3,4-d]pyrimidine-4,6-diamine] | 379 | 769 |
| Cn1ncc2c(NC3(C(C)(C)C)CC3)nc(NC[C@H](N)c3ccccc3)nc21 [Compound 4.79, N6-[(2R)-2-amino-2-phenyl-ethyl]-N4-(1-tert-butylcyclopropyl)-1-methyl-pyrazolo[3,4-d]pyrimidine-4,6-diamine] | 3200 | 2300 |
| Cn1ncc2c(NC3CC34CC4)nc(NC[C@H](N)c3ccccc3)nc21 (stereo partly drawn) [Compound 4.80, N6-[(2R)-2-amino-2-phenyl-ethyl]-1-methyl-N4-spiro[2.2]pentan-2-yl-pyrazolo[3,4-d]pyrimidine-4,6-diamine] | 518 | 656 |
| Cn1ncc2c(NC3CC(CO)(CCl)C3)nc(NCC(N)c3ccccc3)nc21 (stereo not drawn) [Compound 4.81, [3-[[6-[(2-amino-2-phenyl-ethyl)amino]-1-methyl-pyrazolo[3,4-d]pyrimidin-4-yl]amino]-1-(chloromethyl)cyclobutyl]methanol] | 625 | 583 |
